Reference: patent US6569638B1, “Method for screening compounds for the treatment of neoplasia” (Cell Pathways, Inc, priority 2000, dated 2003)

What was measured:
PARP in SW480 cells = experiment: PARP cleavage by Western blot; type: cell-based, human; details: SW480 cells, Compound A 1 μM, 2 days
Method: SW480 cells were pre-treated with either DMSO (−) or Rp-8-pCPT-cGMPS (2 μM) for 2 hours and then treated with either DMSO (−) or Compound A (1 μM). Both the floating and attached cells were collected after 2 days, and the cell lysates were assayed for PARP cleavage by Western blotting with anti-PARP antibody. Fold increase in PARP cleavage was measured by densitometry of the 85 kD fragment.
Finally, we investigated whether activation of the PKG pathway is required for the induction of apoptosis by SAANDs. SW480 cells were treated with either DMSO or the PKG inhibitor Rp-8-pCPT-cGMPS (2 μM) for 2 hours and then the cells were treated with either DMSO or Compound A (1 μM) for 2 days. Both the floating and attached cells were collected, and the cell lysates were assayed for poly (ADP-ribose) polymerase (PARP) cleavage by Western blotting with an anti-PARP antibody. PARP is a 116 kD nuclear enzyme that converts NAD to nicotinamide and protein-linked ADP-ribose polymers, which are important for DNA repair and genomic maintenance. In cells that are undergoing apoptosis the 116 kD PARP protein is cleaved by caspase-3 into 85 and 25 kD fragments, thus resulting in loss of normal PARP function. This inactivation of PARP apparently prevents depletion of cellular levels of NAD and ATP, which are thought to be required for later events in apoptosis.

SEK1 in SW480 cells = experiment: SEK1 phosphorylation by Western blot (anti-phospho-SEK1 Thr223); type: cell-based, human; details: Compound A 1 μM
Method: FIG. 3A: SW480 cells were treated with Compound A (1 μM), collected at the indicated time points, and cell lysates assayed for SEK1 activation by Western blotting with anti-phospho-SEK1 (Thr223) antibody. Fold increase in phosphorylation was measured by densitometry. The experiment was repeated three times with similar results.
To further characterize the signal transduction pathway involved in the above-described JNK1 activation, we tested whether SEK1, the protein kinase immediately upstream of JNK1, was also activated by a SAAND. Activation of SEK1 occurs through phosphorylation of two residues of this protein, Ser219 and Thr223, by the protein kinase MEKK1. SW480 cells were treated with Compound A (1 μM) for various times, up to 6 hours, and extracts were analyzed by Western blot analysis using a phospho-Thr223-specific SEK1 antibody. The treatment with Compound A induced increased phosphorylation of SEK1, within 15-30 minutes, without changing the total cellular level of the endogenous SEK1 protein (see, FIG. 3A). By 1 hour there was a 9-fold induction, and this effect persisted for at least 6 hours (FIG. 3A).

caspase-3 in SW480 cells = experiment: Caspase-3 activity with Ac-DEVD-AFC substrate; type: cell-based, human; details: 24 hours, sulindac sulfide 200 μM, exisulind 600 μM, Compound A 1 μM, Compound B 10 μM
Method: The cells were lysed and the extracts assayed for caspase-3 activity using Ac-DEVD-AFC as the substrate, in the presence or absence of the caspase-3 inhibitor Ac-DEVD-CHO. Caspase-3 activity was calculated by subtracting the AFC fluorescence (excitation; 400 nm, emission; 505 nm) in the presence of Ac-DEVD-CHO from the AFC fluorescence in the absence of Ac-DEVD-CHO.
Protein extracts were then prepared and caspase-3 activity was measured with Ac-DEVD-AFC as the substrate, in the presence or absence of the caspase-3 inhibitor Ac-DEVD-CHO. […] Similar findings were obtained with HCT116 and HT29 cells (data not shown).

[1] = tested on: JNK1 in SW480 colon cancer cells; experiment: JNK1 immunoprecipitation in vitro kinase assay with GST-c-Jun(1-79); type: cell-based, human; details: SW480 cells
Method: The cells were lysed, JNK1 immunoprecipitated with an anti-JNK1 antibody, and the immunoprecipitate (“IP”) assayed for in vitro kinase activity with GST-c-Jun(1-79) as the substrate. The experiments were repeated three times with similar results. Fold activation was measured using a Phosphor Imager.
FIG. 1B: SW480 cells were treated with Compound A (1 μM) for the indicated time periods and in vitro JNK1 kinase activity was determined as described above.
FIG. 2A SW480 cells were treated with either DMSO (−) or Compound A, 0.1 μM; dbcGMP, 500 μM; YC-1, 50 μM; MY-5445, 50 μM; dipyridamole, 10 μM or dbcAMP, 500 μM for one hour. The cells were lysed, JNK1 immunoprecipitated, and the IP assayed for in vitro kinase activity as described in FIG. 1A.
FIG. 2B SW480 cells were pre-treated with either DMSO, KT5720 (2 μM) or Rp-8-pCPT-cGMPS (2 μM) for 2 hours and then treated with Compound B (0, 1 or 10 μM) for one hour. The cells were lysed and assayed for JNK1 activation in the IP as described above.
These concentrations were chosen since they provided optimal induction of apoptosis. Endogenous JNK1 was immunoprecipitated with anti-JNK1 antibody and in vitro kinase assays were performed with GST-c-Jun(1-79) as the substrate. […]
However, the precise role of PKG in signal transduction pathways is not known. […] As a control, KT5720 was used as a protein kinase A (“PKA”)-specific inhibitor. SW480 cells were treated with either DMSO, KT5720 (2 μM) or Rp-8-pCPT-cGMPS (2 μM) for 2 hours and then treated with either DMSO or Compound B (1 or 10 μM) for one hour. Cell extracts were collected and assayed for JNK1 activation.

PDE peak B = experiment: Competitive binding with cGMP
MEKK1 in SW480 cells = experiment: MEKK1 cleavage and activation (Western blot, autophosphorylation); type: cell-based, human
Method: FIG. 3B: SW480 cells were treated with Compound A (1 μM) and collected after either 1 or 2 days and the cell lysates were assayed for MEKK1 cleavage by Western blotting with anti-MEKK1 antibody. Minus (−) indicates DMSO treated control cells.
We then examined the effect of a SAAND on MEKK1, a protein kinase immediately upstream of SEK1. […] Previous studies indicate that MEKK1 is cleaved during activation by caspases (19). […] It is not clear, however, whether cGMP-activated PKG directly activates MEKK1 or whether the cleavage and activation of MEKK1 is an indirect effect of the process of apoptosis.

PDE 5 (i.e., peak A) = PDE 5 (i.e., peak A) (Homo sapiens, UniProt O76074); experiment: Competitive binding with cGMP; details: PDE 5 (peak A)
[2] = target: T1, GST-cGB-PDE5 fusion protein (cGMP binding sites of human PDE5A) (Homo sapiens, UniProt O76074); experiment: cGMP binding assay (3H-cGMP competition); details: 3H-cGMP 2 μM, 22° C., 1 hour
T1 construct: made in house; host or cells: E. coli BL21 (DE3)

## COc1cc(/C=C2/C(C)=C(CC(=O)NCc3ccccc3)c3cc(F)ccc32)cc(OC)c1OC [Compound A, (Z)-5-fluoro-2-methyl-(3,4,5-trimethyl-oxybenzylidene)-3-(N-benzyl)-indenylacetamide]
PARP in SW480 cells
  PARP cleavage: induced PARP cleavage
SEK1 in SW480 cells
  persistence of SEK1 phosphorylation: at least 6 hours
  time to increased phosphorylation of SEK1: 15 to 30 min
SEK1 in SW480 cells; by 1 hour
  induction of SEK1 phosphorylation: 9 fold
caspase-3 in SW480 cells
  caspase-3 activation: led to activation of caspase-3
[1]; Compound A 1 μM, time course
  duration of sustained JNK1 activation: at least 24 hours
[1]; one hour, sulindac sulfide 50-500 μM, exisulind 100-600 μM, Compound A 0.1-5 μM, Compound B 1-50 μM
  JNK1 activation: activated JNK1
PDE peak B
  competitive binding with cGMP: competitively (with cGMP) binds
MEKK1 in SW480 cells
  MEKK1 activity (autophosphorylation and phosphorylation of GST-SEK1): strong and transient activation of MEKK1 activity
MEKK1 in SW480 cells; Compound A 1 μM, one or two days
  MEKK1 cleavage: cleavage of this protein
PDE 5 (i.e., peak A)
  competitive binding with cGMP: competitively (with cGMP) bind
[2]
  competition with cGMP for the cGMP binding sites of GST-cGB-PDE5: None of the PDE5 inhibitors showed any competition with cGMP
